Source: BindingDB's records for doi:10.1016/j.bmcl.2007.12.038 (St. Jude Children'S Research Hospital, 2008)

Tests used:
[1] = Binding affinity to GST tagged human CFTR PDZ2 domain
[2] = Binding affinity to GST tagged human beta 2 adrenergic receptor PDZ1 domain

SMILES	IC50 [1] [µM]	IC50 [2] [µM]
CCCCC(O)c1[nH]c2cc(C)c(C(=O)O)cc2c1CCc1ccccc1 (stereo unspecified) [2-(1-hydroxypentyl)-6-methyl-3-phenethyl-1H-indole-5-carboxylic acid]	160	1540
Cc1cc2[nH]c(C(O)CCCC(=O)O)c(CCc3ccccc3)c2cc1C(=O)O (stereo unspecified) [2-(4-carboxy-1-hydroxybutyl)-6-methyl-3-phenethyl-1H-indole-5-carboxylic acid]	330	777
CCCCCc1c(CO)c2cc(C)c(C(=O)O)cc2n1CCc1ccccc1 [3-(hydroxymethyl)-5-methyl-2-pentyl-1-phenethyl-1H-indole-6-carboxylic acid]	380	280
